Test results as given in PubChem BioAssay (NCI).
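The compound was tested at five concentrations on cells cultured in 96-well plates, with a 48-hour exposure period. Abbreviation: GI50, concentration required for 50% inhibition of growth. TGI: total growth inhibition.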

Tests used:
Assay in all cases: NCI tumour cell line growth inhibition, 48 h
SK-MEL-5 melanoma = tested on: SK-MEL-5 melanoma
K-562 leukemia = tested on: K-562 leukemia
SN12C renal = tested on: SN12C renal
NCI/ADR-RES ovarian = tested on: NCI/ADR-RES ovarian
HT29 colon = tested on: HT29 colon
HS 578T breast = tested on: HS 578T breast
UACC-62 melanoma = tested on: UACC-62 melanoma
SNB-75 CNS = tested on: SNB-75 CNS
T-47D breast = tested on: T-47D breast
HL-60(TB) leukemia = tested on: HL-60(TB) leukemia
UO-31 renal = tested on: UO-31 renal
A498 renal = tested on: A498 renal
NCI-H522 lung = tested on: NCI-H522 lung
OVCAR-5 ovarian = tested on: OVCAR-5 ovarian
TK-10 renal = tested on: TK-10 renal
MALME-3M melanoma = tested on: MALME-3M melanoma
MDA-MB-435 = tested on: MDA-MB-435
SF-268 CNS = tested on: SF-268 CNS
NCI-H23 lung = tested on: NCI-H23 lung
SW-620 colon = tested on: SW-620 colon
CCRF-CEM leukemia = tested on: CCRF-CEM leukemia
SF-295 CNS = tested on: SF-295 CNS
HCT-15 colon = tested on: HCT-15 colon
OVCAR-4 ovarian = tested on: OVCAR-4 ovarian
OVCAR-8 ovarian = tested on: OVCAR-8 ovarian
CAKI-1 renal = tested on: CAKI-1 renal
DU-145 prostate = tested on: DU-145 prostate
MCF7 breast = tested on: MCF7 breast
COLO 205 colon = tested on: COLO 205 colon
SF-539 CNS = tested on: SF-539 CNS
SK-MEL-28 melanoma = tested on: SK-MEL-28 melanoma
U251 CNS = tested on: U251 CNS
UACC-257 melanoma = tested on: UACC-257 melanoma
OVCAR-3 ovarian = tested on: OVCAR-3 ovarian
KM12 colon = tested on: KM12 colon
MDA-MB-231 breast = tested on: MDA-MB-231 breast
HOP-62 NSCLC = tested on: HOP-62 NSCLC
IGROV1 ovarian = tested on: IGROV1 ovarian
SK-OV-3 ovarian = tested on: SK-OV-3 ovarian
SR leukemia = tested on: SR leukemia
786-0 renal = tested on: 786-0 renal
A549 NSCLC = tested on: A549 NSCLC
NCI-H460 lung = tested on: NCI-H460 lung
M14 melanoma = tested on: M14 melanoma
ACHN renal = tested on: ACHN renal
PC-3 prostate = tested on: PC-3 prostate
MOLT-4 leukemia = tested on: MOLT-4 leukemia
LOX IMVI melanoma = tested on: LOX IMVI melanoma
HCT-116 colon = tested on: HCT-116 colon
RPMI-8226 leukemia = tested on: RPMI-8226 leukemia
HOP-92 NSCLC = tested on: HOP-92 NSCLC
HCC-2998 colon = tested on: HCC-2998 colon
NCI-H226 lung = tested on: NCI-H226 lung
SK-MEL-2 melanoma = tested on: SK-MEL-2 melanoma
BT-549 breast = tested on: BT-549 breast
RXF 393 renal = tested on: RXF 393 renal
SNB-19 CNS = tested on: SNB-19 CNS

## CN(CCO)C1CCN(c2ccc(Nc3ncc4c5ccnc(F)c5n(C5CCCC5)c4n3)nc2)CC1
SK-MEL-5 melanoma
  GI50: 10.9 µM
  TGI: 25.9 µM
K-562 leukemia
  GI50: 1.32 µM
  TGI: 4.08 µM
SN12C renal
  GI50: 12.2 µM
  TGI: 31.5 µM
NCI/ADR-RES ovarian
  GI50: 15.3 µM
  TGI: 36 µM
HT29 colon
  GI50: 1.23 µM
  TGI: 4.45 µM
HS 578T breast
  GI50: 6.01 µM
  TGI: 34.3 µM
UACC-62 melanoma
  GI50: 16.7 µM
  TGI: 46 µM
SNB-75 CNS
  GI50: 5.67 µM
  TGI: 20.7 µM
T-47D breast
  GI50: 17.5 µM
  TGI: 69.1 µM
HL-60(TB) leukemia
  GI50: 0.103 µM
  TGI: 8.05 µM
UO-31 renal
  GI50: 1.86 µM
  TGI: 20.9 µM
A498 renal
  GI50: 0.366 µM
  TGI: 14.6 µM
NCI-H522 lung
  GI50: 17.2 µM
  TGI: 36.2 µM
OVCAR-5 ovarian
  GI50: 0.812 µM
  TGI: 20.7 µM
TK-10 renal
  GI50: 1.59 µM
  TGI: 21.2 µM
MALME-3M melanoma
  GI50: 12.7 µM
  TGI: 34.5 µM
MDA-MB-435
  GI50: 5.84 µM
  TGI: 20.7 µM
SF-268 CNS
  GI50: 12.5 µM
  TGI: 30.9 µM
NCI-H23 lung
  GI50: 7.76 µM
  TGI: 32.3 µM
SW-620 colon
  GI50: 0.184 µM
  TGI: 2.21 µM
CCRF-CEM leukemia
  GI50: 0.208 µM
  TGI: 3.59 µM
SF-295 CNS
  GI50: 2.22 µM
  TGI: 20.2 µM
HCT-15 colon
  GI50: 3.01 µM
  TGI: 7.79 µM
OVCAR-4 ovarian
  GI50: 11.2 µM
  TGI: 27.7 µM
OVCAR-8 ovarian
  GI50: 14.7 µM
  TGI: 43.4 µM
CAKI-1 renal
  GI50: 4.44 µM
  TGI: 21.3 µM
DU-145 prostate
  GI50: 1.76 µM
  TGI: 3.18 µM
MCF7 breast
  GI50: 0.106 µM
  TGI: 3.05 µM
COLO 205 colon
  GI50: 0.0817 µM
  TGI: 18.5 µM
SF-539 CNS
  GI50: 4.6 µM
  TGI: 10.5 µM
SK-MEL-28 melanoma
  GI50: 12.3 µM
  TGI: 28.9 µM
U251 CNS
  GI50: 2.74 µM
  TGI: 7.5 µM
UACC-257 melanoma
  GI50: 17.6 µM
  TGI: 40 µM
OVCAR-3 ovarian
  GI50: 14.9 µM
  TGI: 30.4 µM
KM12 colon
  GI50: 0.0514 µM
  TGI: 1.73 µM
MDA-MB-231 breast
  GI50: 6.01 µM
  TGI: 24.2 µM
HOP-62 NSCLC
  GI50: 4.7 µM
  TGI: 25.4 µM
IGROV1 ovarian
  GI50: 11.7 µM
  TGI: 30.8 µM
SK-OV-3 ovarian
  GI50: 11.1 µM
  TGI: 26 µM
SR leukemia
  GI50: 1.23 µM
  TGI: 4.61 µM
786-0 renal
  GI50: 5.12 µM
  TGI: 26.9 µM
A549 NSCLC
  GI50: 2.27 µM
  TGI: 7.9 µM
NCI-H460 lung
  GI50: 0.99 µM
  TGI: 2.44 µM
M14 melanoma
  GI50: 11.7 µM
  TGI: 32.8 µM
ACHN renal
  GI50: 1.98 µM
  TGI: 20.6 µM
PC-3 prostate
  GI50: 8.47 µM
  TGI: 25.8 µM
MOLT-4 leukemia
  GI50: 0.0513 µM
  TGI: 9.74 µM
LOX IMVI melanoma
  GI50: 1.02 µM
  TGI: 2.24 µM
HCT-116 colon
  GI50: 1.85 µM
  TGI: 7.36 µM
RPMI-8226 leukemia
  GI50: 0.184 µM
  TGI: 19.8 µM
HOP-92 NSCLC
  GI50: 11.6 µM
  TGI: 28.8 µM
HCC-2998 colon
  GI50: 11.1 µM
  TGI: 25.4 µM
NCI-H226 lung
  GI50: 16.3 µM
  TGI: 55 µM
SK-MEL-2 melanoma
  GI50: 20.4 µM
  TGI: 45.6 µM
BT-549 breast
  GI50: 13.1 µM
  TGI: 31.4 µM
RXF 393 renal
  GI50: 1.73 µM
  TGI: 16.8 µM
SNB-19 CNS
  GI50: 2.47 µM
  TGI: 33.8 µM
